{
  "source": "patent US20160089434A1",
  "about": "“COMBINATIONS OF AN ANTI-PD-L1 ANTIBODY AND A MEK INHIBITOR AND/OR A BRAF INHIBITOR” (NOVARTIS AG, priority 2013, published 2016)",
  "key": {"CT26 tumors": {"test_system": "CT26 tumors", "test": "CT-26 murine carcinoma syngeneic mouse model", "type": "in vivo, BALB/C mice", "conditions": "mono-therapy at 1 mg/kg orally once a day, after 18 days of treatment", "experimental": "Female BALB/C mice (Charles River) were used. The animals received food and water ad libitum and were housed in compliance normal standard of care for Laboratory Animals. Tumors were established by subcutaneously implanting 5×10^4 CT26 cells in suspension into the right flanks of mice. Tumor […] were calculated using the equation (l×w^2)/2, where l and w refer to the larger and smaller dimensions collected at each measurement. Treatments began at day 11 after cell implantation with tumor size around 40-100 mm^3. Mice (n=10/group) were treated with Compound A at 1 mg/kg, orally once a day for 21 days, or anti-mouse antibodies, rat-IgG2a and αPD-L1 (10F.9G2 clone) at 10 mg/kg, intraperitoneally (i.p.) twice weekly for three weeks. Tumors were monitored and each animal was euthanized when it's tumor reached the endpoint volume of 2000 mm^3, ulcerated, or on the final day (Day 21), whichever came first. Percent tumor growth inhibition (% TGI) was defined as the difference between the mean tumor volume (MTV) of the designated control group and the MTV of the drug-treated group, expressed as a percentage of the MTV of the designated control group: % TGI=[1−(MTVdrug-treated/MTVcontrol)]×100.\nLog-transformed tumor volume was analyzed using ANOVA, fitting a term for treatment. Differences between fitted treatment means were then calculated with associated raw p-values. […]"}, "pERK1/2 (T202/Y204)": {"test_system": "pERK1/2 (T202/Y204)", "test": "MAPK signaling inhibition in CT26 cells by western blot (pERK)", "type": "cell-based, mouse", "conditions": "24 hours", "experimental": "MAPK signaling inhibition by Compound A from CT 26 cells were determined by western blot analysis. CT26 cells were treated with Compound A in culture medium containing 10% FBS for 24 hours. Proteins were extracted for immunoblotting with anti-ERK1/2 and pERK1/2 (T202/Y204) from Santa Cruz Biotechnology. The membranes were developed with Odyssey Infrared Imaging System (LI-COR Biosciences)."}, "[1]": {"test_system": "CT26 mouse colon carcinoma cells", "test": "Cell growth inhibition of CT26 cells, CellTiter-Glo (CTG) assay", "type": "cell-based", "conditions": "72 h, CT26 cells (KRAS G12D, MAPK1 and MET amplifications), 3 days, 10% FBS, read-out: IC50 value in cell proliferation inhibition", "experimental": "CT26 mouse colon carcinoma cells from American Type Culture Collection (ATCC, cat#CRL-2638, lot#59227052) were cultured in RPMI with 10% fetal bovine serum (FBS) media. Cell growth inhibition was determined via CellTiter-Glo® (CTG) assay (Promega) according to the manufacturer's protocol. Approximately 24 hours after plating, cells were exposed to Compound A with three-fold serial dilutions. Cells were incubated with the compound in culture medium containing 10% FBS for 3 days. IC50 values were interpolated using the method of Levenberg & Marquardt and the equation: y=Vmax−{1−[xn/(Kn+xn)]}, where ‘K’ is equal to IC50 (Mager M E, Data Analysis in Biochemistry and Biophysics. New York: Academic Press. 1972)."}},
  "data": [
    {"smiles": "CC(=O)Nc1cccc(-n2c(=O)n(C3CC3)c(=O)c3c(Nc4ccc(I)cc4F)n(C)c(=O)c(C)c32)c1", "note": "[Compound A, N-{3-[3-cyclopropyl-5-(2-fluoro-4-iodo-phenylamino)6,8-dimethyl-2,4,7-trioxo-3,4,6,7-tetrahydro-2H-pyrido[4,3-d]pyrimidin-1-yl]phenyl}acetamide]", "values": [
      {"measurement": "TGI (tumor growth inhibition)", "setting": "CT26 tumors", "value": 61, "unit": "%"},
      {"measurement": "MAPK signaling inhibition measured by pERK", "setting": "pERK1/2 (T202/Y204)", "value": "dose dependent MAPK signaling inhibition"},
      {"measurement": "IC50", "setting": "[1]", "value": 20, "unit": "nM"}
    ]}
  ]
}
